Data as given in paper PMC4908180 (American Journal of Human Genetics, 2016).

Target: 6His-tagged human FADS isoform 2 (FADS2), WT (Homo sapiens, UniProt Q8NFF5)
Experiment: UV/Vis spectra
Type: binding
Details: reaction product, non-covalent; bound flavin as purified

6His-tagged human FADS isoform 2 (FADS2), WT, sequence (Q8NFF5 98-587): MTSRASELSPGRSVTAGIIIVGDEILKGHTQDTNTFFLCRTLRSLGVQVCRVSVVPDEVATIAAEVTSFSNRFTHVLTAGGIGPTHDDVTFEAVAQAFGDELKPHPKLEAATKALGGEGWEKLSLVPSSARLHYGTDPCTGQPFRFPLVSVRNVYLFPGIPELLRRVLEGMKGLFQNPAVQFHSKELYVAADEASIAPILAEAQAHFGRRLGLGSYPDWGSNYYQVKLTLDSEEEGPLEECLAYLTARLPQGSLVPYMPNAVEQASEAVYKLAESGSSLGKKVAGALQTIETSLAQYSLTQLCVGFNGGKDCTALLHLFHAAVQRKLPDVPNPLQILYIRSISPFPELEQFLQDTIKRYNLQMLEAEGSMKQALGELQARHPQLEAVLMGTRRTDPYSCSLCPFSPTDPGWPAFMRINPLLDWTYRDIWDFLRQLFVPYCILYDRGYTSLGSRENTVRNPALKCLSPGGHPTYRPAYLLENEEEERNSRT

Cc1cc2nc3c(=O)[nH]c(=O)nc-3n(C[C@H](O)[C@H](O)[C@H](O)COP(=O)(O)OP(=O)(O)OC[C@H]3O[C@@H](n4cnc5c(N)ncnc54)[C@H](O)[C@@H]3O)c2cc1C [FAD]
UV/Vis spectra (FAD saturation of purified protein): Spectrophotometric analysis of the purified WT, p.Ser495del, and p.Arg530Cys FADS2 proteins
